Results taken from patent US9873693B2 (Sunesis Pharmaceuticals, Inc., priority 2006, dated 2018).

Columns and labels:
phosphorylated PDK1 = phosphorylated PDK1 (Homo sapiens (Human), UniProt O15530); experiment: PDK1 kinase assay (coupled PDK1/AKT/FAM-crosstide, IMAP); format: biochemical; conditions: 0.5 nM phosphorylated PDK1, 24 μM ATP; read-out: Inhibition of phospo-PDK1 in vitro IC50
dephosphorylated PDK1 = dephosphorylated PDK1 (Homo sapiens (Human), UniProt O15530); experiment: as above; format: biochemical; conditions: 25 nM un-phosphorylated PDK1, 24 μM ATP; read-out: Inhibition of dephospo-PDK1 in vitro IC50
dephosphorylated PDK1, sequence (O15530 51-360): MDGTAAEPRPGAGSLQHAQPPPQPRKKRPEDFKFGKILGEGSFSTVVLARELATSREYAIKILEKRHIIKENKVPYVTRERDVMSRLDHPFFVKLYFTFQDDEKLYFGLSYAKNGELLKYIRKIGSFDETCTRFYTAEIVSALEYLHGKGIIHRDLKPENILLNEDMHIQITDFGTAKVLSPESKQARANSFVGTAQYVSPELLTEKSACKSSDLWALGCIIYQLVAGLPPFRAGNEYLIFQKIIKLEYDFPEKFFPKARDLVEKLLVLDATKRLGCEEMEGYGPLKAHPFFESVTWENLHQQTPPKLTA
Experimental: A PDK1 kinase assay was performed as follows. PDK1 (amino acids 51-360) and AKT2 (amino acids 140-467 fused to PIFtide, amino acids […]) were expressed as N-terminally tagged GST fusion proteins in insect cells and purified to greater than 90% homogeneity. PDK1 protein was divided into two fractions, one of which was subsequently dephosphorylated. To generate dephosphorylated PDK1, the PDK1 was reacted with GST-tagged lambda-phosphatase in vitro. GST was subsequently cleaved proteolytically for both phosphorylated and dephosphorylated PDK1. Protein preparations were run on glutathione Sepharose columns to remove GST and GST-tagged lambda-phosphatase, if present. Phosphorylated PDK1 and dephosphorylated PDK1 were verified by mass-spectrometry. Enzyme activity was determined in a coupled PDK1/AKT/FAM-crosstide assay using either phosphorylated or unphosphorylated PDK1 and phosphorylation of FAM-crosstide was determined by standard IMAP protocol (Molecular Devices). For inhibition studies, compounds were titrated 3-fold in DMSO and diluted 40-fold into assay buffer (10 mM Tris HCl pH7.2; 10 mM MgCl2; 0.01% Triton X-100; 1 mM DTT) containing PDK1, AKT2, and FAM-crosstide. (final concentrations: 25 nM un-phosphorylated PDK1 or 0.5 nM phosphorylated PDK1, 30 nM unphosphorylated AKT2, and 100 nM crosstide substrate). The kinase reaction was initiated by adding ATP to a final concentration of 24 μM for both forms of PDK1 and incubated at 25° C. for 30 min. To detect assay product, the kinase reaction was combined with Progressive Binding Solution (1:600 Progressive Binding Reagent, 50% Buffer A, 50% Buffer B, Molecular Devices) in a 1:3 ratio. The mixture was incubated for 2 hours at 25° C. and the plate was scanned on an Analyst AD with excitation at 485 nm and emission at 530 nm. The fluorescence polarization value “P” is defined by the equation below. The value “mP” is generated by multiplying the P value for each reaction well by a factor of 1000. The value “ΔmP” for each well is the mP value for that well minus the mP value for the average negative control. P=(Fpar−Fperp)/(Fpar+Fperp) Eq.:
Where “par” is fluorescence intensity parallel to the excitation plane; and “perp” is fluorescence intensity perpendicular to the excitation plane. ΔmP values were plotted as a function of compound concentration and the data were analyzed with a 4-parameter fit using GraphPad Prism software.

phospho-akt (Thr308) = phospho-akt (Thr308) MSD ELISA in PC-3 cells; format: cell-based; conditions: Homo sapiens, PC-3, 2 h, PC-3 cells, 2 hours, no serum; read-out: Inhibition of P308 Akt in cells using MSD EC50
Method in brief: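 PC-3 cells plated overnight in 10% FBS medium, then treated with three-fold serial compound dilutions in serum-free medium; DMSO-only wells as high control. Lysates captured on BSA-blocked MSD plates overnight at 4 degrees, detection antibody 1 hr RT, electrochemiluminescence read on MSD reader.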

phosphorylated PDK1, sequence (O15530 51-360): as above

Row | Compound | IC50 (phosphorylated PDK1) [nM] | IC50 (dephosphorylated PDK1) [nM] | EC50 (phospho-akt (Thr308)) [nM]
1 | COc1ccnc(NCCC#CCNC(=O)c2cccn(Cc3cccc(Cl)c3)c2=O)n1 [Cpd 262] | < 500 | < 500 | –
2 | O=C(NCCCCCc1c[nH]c2ncccc12)c1cccn(Cc2cccc(Cl)c2)c1=O [Cpd 108] | 500 to 10000 | 500 to 10000 | –
3 | O=C(Nc1cccc(-c2ccc3[nH]c(=O)[nH]c3c2)c1)c1cccn(Cc2ccc(F)c(F)c2)c1=O [Cpd 162] | 500 to 10000 | < 500 | –
4 | COc1ccnc(NCCC#CCCNC(=O)c2cc(F)cn(Cc3cccc(F)c3)c2=O)n1 [Cpd 258] | < 500 | < 500 | –
5 | O=C(NCc1cccc(-c2c[nH]c3ncccc23)c1)c1cccc(Nc2ccccc2)n1 [Cpd 54] | < 500 | < 500 | –
6 | O=C(NCc1cccc(-c2ccc3nonc3c2)c1)c1cccn(Cc2ccc(F)c(F)c2)c1=O [Cpd 219] | > 10000 | 500 to 10000 | –
7 | COc1ccnc(NCCCCCNC(=O)c2cccn(Cc3ccc(Cl)c(Cl)c3)c2=O)n1 [Cpd 104] | 500 to 10000 | < 500 | –
8 | O=C(NCc1cccc(-c2cccc3[nH]ncc23)c1)c1cccn(Cc2ccc(F)c(F)c2)c1=O [Cpd 329] | – | 500 to 10000 | > 5000
9 | O=C(NCCOc1ccc2c(c1)[nH]c(=O)n2CCN1CCCC1)c1cccn(Cc2ccc(F)c(F)c2)c1=O [Cpd 130] | 500 to 10000 | 500 to 10000 | –
10 | NC(=O)Nc1ccc(OCCNC(=O)c2cccn(Cc3ccc(F)c(F)c3)c2=O)cc1 [Cpd 122] | 500 to 10000 | < 500 | –
11 | Nc1ccc(-c2cccc(CNC(=O)c3cccn(Cc4ccc(F)c(F)c4)c3=O)c2)cn1 [Cpd 214] | – | 500 to 10000 | –
12 | COc1ccnc(NCCCCCNC(=O)c2cccn(C(C)c3ccc(Cl)cc3)c2=O)n1 (stereo not shown) [Cpd 105] | 500 to 10000 | < 500 | –
13 | COc1ccnc(NCCC#CCCNC(=O)c2cccn(Cc3ccc(F)c(F)c3)c2=O)n1 [Cpd 263] | < 500 | < 500 | –
14 | COc1ccnc(NCCCCCNC(=O)c2cccn(Cc3cc(F)c(F)c(F)c3)c2=O)n1 [Cpd 267] | – | < 500 | –
15 | COc1ccnc(NCCC#CCCNC(=O)c2cccn([C@H](C)c3ccc(Cl)cc3)c2=O)n1 [Cpd 259] | < 500 | < 500 | –
16 | O=C(NCCOc1cc2[nH]c(=O)[nH]c2cc1F)c1cccn(Cc2ccc(F)c(F)c2)c1=O [Cpd 155] | 500 to 10000 | < 500 | –
17 | COc1ccnc(NCCCCCNC(=O)c2cccn(C(C)c3ccc(Cl)cc3)c2=O)n1 (stereo not shown) [Cpd 254] | 500 to 10000 | < 500 | –
18 | COc1ccnc(NCCC#CCCNC(=O)c2cc(Cl)cn(C(C)c3ccc(Cl)cc3)c2=O)n1 (stereo not shown) [Cpd 106] | < 500 | < 500 | –
19 | O=C(NCc1cc(-c2c[nH]c3ncccc23)[nH]n1)c1cccn(Cc2ccc(F)c(F)c2)c1=O [Cpd 142] | < 500 | < 500 | –
20 | O=C(NCc1nc(-c2c[nH]c3ncccc23)c[nH]1)c1cccn(Cc2ccc(F)c(F)c2)c1=O [Cpd 116] | 500 to 10000 | < 500 | –
21 | O=C(NCCSc1ccc2[nH]c(=O)[nH]c2c1)c1cccn(Cc2ccc(F)c(F)c2)c1=O [Cpd 117] | 500 to 10000 | 500 to 10000 | –
22 | CNC(=O)C[C@@H](NC(=O)c1cccn(Cc2ccc(F)c(F)c2)c1=O)c1ncc(-c2c[nH]c3ncccc23)o1 [Cpd 248] | – | < 500 | –
23 | O=C1Cc2ccc(/C=C/CNC(=O)c3cc(I)cn(Cc4cc(F)c(F)c(F)c4)c3=O)cc2N1 [Cpd 178] | < 500 | < 500 | –
